Results as given in US20070111284A1, “Galactosylation of Recombinant Glycoproteins” (Genentech, Inc., priority 2000, published 2007).

Experiments:
CPS II = CPS II activity in PALA resistant CHO cells; type: cell-based, Chinese hamster; conditions: CHO B cell line, selected with 3 mM PALA; FIG. 3
Method: CHO DP12 and CHO DG44 parental cell lines and CHO DP12 expressing TNFR-IgG and anti-CD11a were cultivated with and without P-phosphonacytyl-L-aspartate (PALA). As shown schematically in FIG. 2, each cell line was plated at 10% confluency in 10 cm petri dishes using standard tissue culture techniques. Cells were cultured in serum containing medium having 0.1 mM PALA. The culture medium was changed weekly. Surviving clones were pooled and sub-cultivated in increasing concentrations of PALA until the target PALA concentration was reached, i.e., 2-10 mM PALA. After selection for the PALA phenotype (see below), cells were either passed into a PALA containing medium or to a PALA free medium and further cultivated in suspension spinner flasks. Spinner flask cell populations were sub-cultivated every 4-7 days. Cells selected in the presence of PALA are referred to as PALA-resistant cells, cells cultivated in the same manner as above but not treated with PALA will be referred to as control cells.
CHO cells treated with 3 mM PALA were analyzed for CPS II activity, an indicator of overall CAD activity, using the method generally described in Mori and Tatibana. […] Two PALA resistant CHO sub-cultures were analyzed, CHO-A and CHO-B, to ensure that results were uniform to the PALA resistant phenotype and not particular to a sub-population of treated cells.

CAD mRNA = CAD mRNA expression by RNase protection assay in PALA selected cells; type: cell-based; conditions: TRY cells selected under 2 mM PALA; FIG. 4
Method: CAD expression was measured on PALA resistant cells using a RNase protection assay similar to the method described in Mahler and McGuire. Mahler and McGuire (1990), J. Clin. Invest., 86: 1641-1648. In particular, TRY cells were selected under 2 mM PALA and CAD mRNA expression measured using a RNase protection assay.

CHO cells [1] = test: Intracellular nucleotides and nucleotide sugars (HPLC) in PALA resistant CHO cells; type: cell-based, Chinese hamster; conditions: FIG. 6
Method: CHO cells were treated in 5 mM PALA, cell extracts were prepared and nucleotides measured using a method similar to Ryll and Wagner. Ryll and Wagner (1991) J. Chromatography, 570:77-88. The experiment was performed over a time course of 10 to 90 days and data quantified and plotted as UTP content of PALA resistant cells relative to control cells.
Further, PALA resistant CHO DP12 cells expressing TNFR-IgG were seeded at 4×10^6 cells per ml in spinner flask cultures and incubated at 31° C. and 6 mM butyrate for 6 days. The cell culture supernatant was harvested and TNFR-IgG recovered by a method of protein A immunoaffinity chromatography as is well known in the art. N-linked glycans were analyzed by MALDI mass spectrometry using the method generally described by Papac et al., (1996) Anal. Chem., 68:3215-3223. Sialic acid content of the TNFR-IgG was determined using were analyzed using the method generally described by Anumula, (1995) Anal. Biochem., 230, 24-30.

CHO cells [2] = test: Intracellular UTP and UDP-galactose in CHO cells fed uridine or galactose; type: cell-based, Chinese hamster
Method: CHO cells were incubated under standard tissue culture technique in the presence and absence of 1 to 20 mM uridine for 18 hours and tested for UTP concentrations using a method similar to Ryll and Wagner. Quantified data from the 0, 1, 2, 5, 10 and 20 mM uridine cultures were plotted as a function of normalized intracellular UTP concentrations. Alternatively, CHO Cells were cultured in the presence of 0.2 mM uridine or 11 mM galactose and tested for UTP concentrations using the method of Ryll and Wagner.

[3] = tested on: CHO cell line that produces aCD20; test: Galactose content of aCD20 MAb from CHO cells cultured with uridine (capillary electrophoresis); type: cell-based, Chinese hamster; conditions: 0.5 to 1.0 mM uridine for 7 days; FIG. 10
Method: A CHO cell line that produces a recombinant glycoprotein, monoclonal antibody (MAb) aCD20, was cultured in the presence and absence of 0.5 to 1.0 mM uridine for a period of 7 days. Secreted aCD20 MAb was purified by immunoaffinity using the method of Ma & Nashabeh. Ma & Mashabeh (1999) Analytical Chemistry 71(22):5185-92. Purified aCD20 was tested for galactose content using the capillary electrophoresis method of Ma & Nashabeh and plotted as a percent galactose content.

[4] = 0.2 mM uridine or 11 mM galactose, FIG. 8

## O=C(O)C[C@H](NC(=O)CP(=O)(O)O)C(=O)O [PALA, N-phosphonacetyl-L-aspartate]
CPS II
  increase in CPS II activity as compared to control CHO cells: twenty
CAD mRNA
  increase in CAD mRNA as compared to control cells: two
CHO cells [1]; CHO cells treated in 5 mM PALA, time course of 10 to 90 days
  increase in UTP content as compared to control cells: 200-350%
CHO cells [1]; PALA resistant CHO cells, period of at least 90 days
  increase in UDP-galactose content as compared to control cells: 200-350%

## O=C[C@H](O)[C@@H](O)[C@@H](O)[C@H](O)CO [galactose]
CHO cells [2]; [4]
  intracellular UTP levels: does not increase UTP levels
CHO cells [2]; 11 mM galactose, FIG. 8
  intracellular UDP-galactose levels: does increase UDP-galactose levels

## O=c1ccn([C@@H]2O[C@H](CO)[C@@H](O)[C@H]2O)c(=O)[nH]1 [uridine]
CHO cells [2]; [4]
  intracellular UTP levels: dramatic increase in UTP levels
CHO cells [2]; 1 to 20 mM uridine for 18 hours, FIG. 7
  intracellular UTP levels: increases UTP levels within the cell in a dose dependent manner
[3]
  galactose content of aCD20 MAb versus non-uridine treated control cells: much higher galactose content
